Experimental findings from ChEMBL document CHEMBL1201862, “PubChem BioAssay data set” (2004) are described below.

Test systems include A549; ACHN; DU-145; HOP-62; HOP-92; Hs-578T; LOX IMVI; M14; MDA-MB-231; NCI-H226; NCI-H522; OVCAR-4; PC-3; SF-268; SK-MEL-28; T47D; TK-10; HL-60.
Experiment in all cases: inhibition of tumour cell growth, NCI panel, 48 h

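Dose response: 5 concentrations. Exposure: 48 h. Format: 96-well plates. Endpoint: linear interpolation; highest concentration if not reached. GI50 is the concentration that inhibits growth by half.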 Active and inactive are the calls of the source. No stated cut-off is given here; in the data, active = GI50 up to about 1.1 µM and inactive = higher.

On to `COC1(OC)c2no[n+]([O-])c2CCC1O` (stereo not drawn), for which the GI50 is > 100 µM (inactive) with A549; > 100 µM (inactive) with ACHN; > 100 µM (inactive) with DU-145; > 100 µM (inactive) in the experiment on HOP-62; 0.0255 µM (active) with HOP-92; > 100 µM (inactive) in the experiment on Hs-578T. In addition, the GI50 in the experiment on LOX IMVI, with M14, in the experiment on MDA-MB-231, in the experiment on NCI-H226, in the experiment on NCI-H522 and in the experiment on OVCAR-4 was > 100 µM (inactive) in each case. Also, the GI50 in the experiment with PC-3, in the experiment on SF-268, with SK-MEL-28, in the experiment on T47D and in the experiment with TK-10 was > 100 µM (inactive) throughout.

For the compound `N/C(S)=N/N=C/c1cc(CN2CCOCC2)c(N)cn1`, the GI50 is 14.1 µM (inactive) with ACHN; 28.6 µM (inactive) with DU-145; 48.2 µM (inactive) in the experiment with HL-60; 30.3 µM (inactive) in the experiment on HOP-62; > 100 µM (inactive) with Hs-578T; 29.9 µM (inactive) with LOX IMVI. Moreover, the GI50 with M14 is 18.7 µM (inactive); in the experiment on MDA-MB-231, 48.1 µM (inactive); in the experiment on NCI-H226 it was 12.7 µM (inactive); with PC-3 it was 56.9 µM (inactive); with SF-268 it was 23.6 µM (inactive); in the experiment with T47D it was 85.9 µM (inactive). Besides, the GI50 in the experiment with TK-10 is 43.4 µM (inactive).

With `CCCCNC(=O)c1cc(S(=O)(=O)n2ccnc2O)c(SC)cc1Cl`, the GI50 in the experiment on A549, in the experiment with ACHN, in the experiment with DU-145, in the experiment on HL-60, in the experiment with HOP-62 and in the experiment with Hs-578T was > 100 µM (inactive) each time. Further, the GI50 with LOX IMVI, with M14, in the experiment on MDA-MB-231, in the experiment on NCI-H522, in the experiment on OVCAR-4 and in the experiment with PC-3 was > 100 µM (inactive) in each case. The GI50 was > 10 µM (inactive) with SF-268, > 100 µM (inactive) in the experiment on SK-MEL-28, > 100 µM (inactive) with T47D and > 100 µM (inactive) in the experiment with TK-10.

For the compound `Nc1nc2ccc3ccccc3c2[nH]1`, the GI50 in the experiment on A549, with ACHN, with DU-145, with HL-60, with HOP-62 and with Hs-578T was > 10 µM (inactive) each time. Moreover, the GI50 with LOX IMVI was > 10 µM (inactive); in the experiment with M14, > 10 µM (inactive); in the experiment on MDA-MB-231, > 10 µM (inactive); in the experiment on NCI-H226 it was 8.51 µM (inactive); in the experiment on NCI-H522 it was > 10 µM (inactive); with OVCAR-4, > 10 µM (inactive). Further, the GI50 in the experiment with PC-3, with SF-268, in the experiment on SK-MEL-28, with T47D and in the experiment with TK-10 was > 10 µM (inactive) throughout.

On to `Cc1c(N2C(=O)/C(=C/c3ccc(N(CCC#N)CCC#N)cc3)N=C2c2ccccc2)c(=O)n(-c2ccccc2)n1C`, for which the GI50 with A549 was > 100 µM (inactive); with DU-145 it was > 100 µM (inactive); with HL-60, 96.2 µM (inactive); with HOP-62, > 100 µM (inactive); with HOP-92 it was > 100 µM (inactive); with Hs-578T, > 100 µM (inactive). For the same compound, the GI50 in the experiment on LOX IMVI, with M14, in the experiment on MDA-MB-231, with NCI-H226, in the experiment with OVCAR-4 and with SF-268 was > 100 µM (inactive) in each case. The GI50 in the experiment on SK-MEL-28 and with T47D was > 100 µM (inactive) throughout.

As for `CS(C)(=O)=Nn1c(=O)n2n(c1=O)C1c3ccccc3C2c2ccccc21`, the GI50 in the experiment on A549, with ACHN, in the experiment with DU-145, with HL-60, in the experiment on HOP-62 and in the experiment on HOP-92 was > 100 µM (inactive) in each case. The GI50 in the experiment on LOX IMVI, in the experiment with M14, with MDA-MB-231, in the experiment with NCI-H522, with PC-3 and with SK-MEL-28 was > 100 µM (inactive) each time. Besides, the GI50 in the experiment on T47D and with TK-10 was > 100 µM (inactive) in each case.

In the case of `CC(=O)c1ccccc1NP(=O)(c1ccccc1)c1ccccc1`, the GI50 in the experiment on A549 was 56.9 µM (inactive); in the experiment on ACHN, > 100 µM (inactive); in the experiment with DU-145, > 100 µM (inactive); with HL-60, 33.2 µM (inactive); in the experiment with HOP-62, > 100 µM (inactive); in the experiment on Hs-578T, 53.3 µM (inactive). Besides, the GI50 in the experiment on LOX IMVI is 90.6 µM (inactive); with M14, 33.9 µM (inactive); with MDA-MB-231, 32.5 µM (inactive); with NCI-H522 it was 37.3 µM (inactive); in the experiment with OVCAR-4, 27.5 µM (inactive); in the experiment with PC-3, > 100 µM (inactive). In addition, the GI50 is 74.5 µM (inactive) in the experiment with SF-268, 67.9 µM (inactive) in the experiment on SK-MEL-28, 43.3 µM (inactive) with T47D and 40.8 µM (inactive) with TK-10.

As for `C=CCOC1OC(CS(=O)(=O)O)C(O)C(O)C1O` (stereo not drawn), the GI50 in the experiment with DU-145, in the experiment with HL-60, with HOP-62, with HOP-92, in the experiment on Hs-578T and in the experiment on LOX IMVI was > 100 µM (inactive) each time. The GI50 with M14, with MDA-MB-231, in the experiment with NCI-H226, with OVCAR-4, in the experiment with PC-3 and with SK-MEL-28 was > 100 µM (inactive) each time. Further, the GI50 in the experiment on T47D and in the experiment on TK-10 was > 100 µM (inactive) each time.

On to `Oc1ccc(Cl)cc1C1=NC(/N=C\c2ccccc2)=NC(c2ccccc2)C1` (stereo not drawn), for which the GI50 in the experiment with A549 was 21.7 µM (inactive); in the experiment with DU-145, > 100 µM (inactive); in the experiment on HOP-62, 25.7 µM (inactive); with HOP-92, > 100 µM (inactive); in the experiment with Hs-578T, > 100 µM (inactive); in the experiment with M14, > 100 µM (inactive). Moreover, the GI50 in the experiment with MDA-MB-231 is 35.6 µM (inactive); in the experiment with NCI-H226, 37.8 µM (inactive); in the experiment with NCI-H522, 12.1 µM (inactive); with PC-3 it was > 100 µM (inactive); with SF-268, 7.19 µM (inactive); in the experiment with SK-MEL-28, > 100 µM (inactive). The GI50 is 13.3 µM (inactive) with T47D and > 100 µM (inactive) in the experiment on TK-10.

For the compound `O=c1c(-c2ccccc2)c(SCCN2CCOCC2)n(-c2ccccc2)c(=S)n1-c1ccccc1`, the GI50 is > 100 µM (inactive) in the experiment on ACHN; > 100 µM (inactive) in the experiment on DU-145; > 100 µM (inactive) in the experiment with HL-60; 74 µM (inactive) with HOP-62; 25.2 µM (inactive) with HOP-92; 62.2 µM (inactive) in the experiment with Hs-578T. For the same compound, the GI50 was > 100 µM (inactive) in the experiment on LOX IMVI; 83.9 µM (inactive) with MDA-MB-231; 35.3 µM (inactive) in the experiment on NCI-H226; 51.5 µM (inactive) in the experiment on NCI-H522; 32.1 µM (inactive) with OVCAR-4; > 100 µM (inactive) with PC-3. For the same compound, the GI50 in the experiment on SK-MEL-28 is > 100 µM (inactive); with TK-10, 46.6 µM (inactive).

Take `Cc1ccc(S(=O)(=O)NCCSS(=O)(=O)c2ccc(C)cc2)cc1`: the GI50 in the experiment on A549 was 25.9 µM (inactive); with ACHN, 32.8 µM (inactive); in the experiment with DU-145 it was 42.6 µM (inactive); in the experiment on HOP-92, > 100 µM (inactive); in the experiment on Hs-578T, 96.4 µM (inactive); in the experiment with LOX IMVI, 33.4 µM (inactive). Besides, the GI50 in the experiment with MDA-MB-231 was 37.7 µM (inactive); in the experiment with NCI-H226, 24.3 µM (inactive); in the experiment with NCI-H522, 18.2 µM (inactive); with OVCAR-4, > 100 µM (inactive); in the experiment on PC-3, 27.6 µM (inactive); in the experiment with SF-268 it was 22.1 µM (inactive). For the same compound, the results for the GI50 in the experiment with SK-MEL-28, in the experiment with T47D and in the experiment with TK-10 were 31.7 µM (inactive), 27.7 µM (inactive) and > 100 µM (inactive), respectively.

`COc1cccc(C2c3cc4c(cc3OC(NNS(=O)(=O)c3ccc(C)cc3)C2C)OCO4)c1O` (stereo not drawn): the GI50 is 18.6 µM (inactive) in the experiment on A549; 23.6 µM (inactive) in the experiment with ACHN; 30.5 µM (inactive) in the experiment on DU-145; 18 µM (inactive) in the experiment with HL-60; 22.3 µM (inactive) in the experiment on HOP-62; 33.8 µM (inactive) in the experiment on HOP-92. For the same compound, the GI50 was 12.8 µM (inactive) in the experiment with Hs-578T; 26.1 µM (inactive) in the experiment on LOX IMVI; 24.7 µM (inactive) in the experiment on M14; 20.4 µM (inactive) in the experiment on MDA-MB-231; 27.9 µM (inactive) in the experiment with NCI-H226; 11.4 µM (inactive) in the experiment with NCI-H522. In addition, the GI50 is 12.4 µM (inactive) with PC-3; 41.9 µM (inactive) with SF-268; 25.5 µM (inactive) in the experiment with SK-MEL-28; 18.2 µM (inactive) in the experiment with T47D; 31.8 µM (inactive) in the experiment with TK-10.

With `O=C(CCCn1cnc([N+](=O)[O-])n1)NCCn1ccnc1[N+](=O)[O-]`, the GI50 was > 100 µM (inactive) in the experiment on A549; > 100 µM (inactive) with ACHN; > 100 µM (inactive) in the experiment on DU-145; > 100 µM (inactive) with HL-60; > 100 µM (inactive) in the experiment with HOP-62; 61.7 µM (inactive) in the experiment on HOP-92. The GI50 in the experiment on Hs-578T, in the experiment with LOX IMVI, in the experiment on M14, in the experiment on NCI-H226, in the experiment with NCI-H522 and with OVCAR-4 was > 100 µM (inactive) in each case. Moreover, the GI50 in the experiment with PC-3, in the experiment on SF-268, in the experiment on SK-MEL-28, in the experiment with T47D and in the experiment on TK-10 was > 100 µM (inactive) throughout.
